Data published in patent US5672715A, “Herbicidal substituted 3-aryl-pyrazoles” (Monsanto Company, priority 1995, dated 1997).
Values joined by “and” are separate entries in the source; they are usually repeats but may differ in a detail not shown here. Equal values may be shown once.

Tests used:
Assay type in all cases: in vivo
Green Foxtail [1] = assay: pre-emergence herbicide test; details: Setaria viridis, pre-emergence; 0.25 lb/A; read-out: % plant inhibition
Method: (§1) Topsoil was placed in an aluminum pan and compacted to a depth of 1.3 to 1.6 cm from the top of the pan. On the top of the soil was placed a predetermined number of seeds of each of several monocotyledonous and dicotyledonous annual plant species and/or vegetative propagules of various perennial plant species. The pan was then level filled with a cover layer of topsoil to which was added a known amount of active ingredient either prior to or after application of the cover layer. The active ingredient was dissolved or suspended in an organic solvent, e.g., acetone, or water as carrier for application to the cover layer. The pans were moved to a greenhouse bench where they were thereafter watered from below as needed to give adequate moisture for germination and growth. In some cases, an initial overhead irrigation of 1/4 inch of water was applied immediately after treatment.
(§2) Approximately 14 days after seeding and treating, the pans were observed and the results (% inhibition) were recorded.
(§3) The tables below summarize the results of the pre-emergence herbicidal activity tests of compounds of this invention tested with warm season plants (Tables 2a-2d) and cool season plants (Tables 3a and 3b). The herbicidal rating shown in these tables is the percent inhibition of each plant species. The plant species usually regarded as weeds are identified in the tables by single letter headings and crop species identified by two letter headings both headings being above the columns in accordance with the following legend: […]

Seedling Johnsongrass [2] = assay: pre-emergence herbicide test; details: 0.25 lb/A; for inhibition at 280.212 g/ha: Sorghum halepense, pre-emergence, read-out: % plant inhibition
Method: as §1, §2, §3

Birdseye Speedwell [3] = assay: pre-emergence herbicide test; details: pre-emergence, 0.25 lb/A; read-out: % plant inhibition
Method: as §1, §2, §3

Cocklebur [4] = assay: pre-emergence herbicide test; details: 0.25 lb/A; for inhibition at 280.212 g/ha: Xanthium strumarium, pre-emergence, read-out: % plant inhibition
Method: as §1, §2, §3

Corn [5] = assay: pre-emergence herbicide test; details: 0.25 lb/A; for inhibition at 280.212 g/ha: Zea mays, pre-emergence, read-out: % plant inhibition
Method: as §1, §2, §3

Blackgrass [6] = assay: pre-emergence herbicide test; details: Alopecurus myosuroides, pre-emergence, 0.25 lb/A; read-out: % plant inhibition
Method: as §1, §2, §3

Barnyardgrass [7] = assay: pre-emergence herbicide test; details: 0.25 lb/A; for inhibition at 280.212 g/ha: Echinochloa crus-galli, pre-emergence, read-out: % plant inhibition
Method: as §1, §2, §3

Giant Foxtail [8] = assay: pre-emergence herbicide test; details: 0.25 lb/A; for inhibition at 280.212 g/ha: Setaria faberi, pre-emergence, read-out: % plant inhibition
Method: as §1, §2, §3

Rape [9] = assay: pre-emergence herbicide test; details: pre-emergence, 0.25 lb/A; read-out: % plant inhibition
Method: as §1, §2, §3

Bedstraw Catchweed [10] = assay: pre-emergence herbicide test; details: Galium aparine, pre-emergence, 0.25 lb/A; read-out: % plant inhibition
Method: as §1, §2, §3

Morning Glory [11] = assay: pre-emergence herbicide test; details: 0.25 lb/A; for inhibition at 280.212 g/ha: Ipomoea, pre-emergence, read-out: % plant inhibition
Method: as §1, §2, §3

Soybean [12] = assay: pre-emergence herbicide test; details: Glycine max, pre-emergence, 0.25 lb/A; read-out: % plant inhibition
Method: as §1, §2, §3

Velvetleaf [13] = assay: pre-emergence herbicide test; details: 0.25 lb/A; for inhibition at 280.212 g/ha: Abutilon theophrasti, pre-emergence, read-out: % plant inhibition
Method: as §1, §2, §3

Wild Oats [14] = assay: pre-emergence herbicide test; details: Avena fatua, pre-emergence, 0.25 lb/A; read-out: % plant inhibition
Method: as §1, §2, §3

Downy Brome [15] = assay: pre-emergence herbicide test; details: Bromus tectorum, pre-emergence, 0.25 lb/A; read-out: % plant inhibition
Method: as §1, §2, §3

Common Chickweed [16] = assay: pre-emergence herbicide test; details: pre-emergence, 0.25 lb/A; read-out: % plant inhibition
Method: as §1, §2, §3

Wheat [17] = assay: pre-emergence herbicide test; details: Triticum aestivum, pre-emergence, 0.25 lb/A; read-out: % plant inhibition
Method: as §1, §2, §3

Green Foxtail [18] = assay: post-emergence herbicide test; details: Setaria viridis, post-emergence, 0.25 lb/A; read-out: % plant inhibition
Excerpt: (§4) Topsoil was placed in aluminum pans having holes in the bottom and compacted to a depth of 1.3 to 1.6 cm from the top of the pan. A predetermined number of seeds of each of several dicotyledonous and monocotyledonous annual plant species and/or vegetative propagules for the perennial plant species were placed on the soil and pressed into the soil surface. The seeds and/or vegetative propagules were covered with soil and leveled. The pans were then placed on a bench in the greenhouse and watered either from overheard irrigation or by subirrigation as needed. After the plants reach the desired age (two to three weeks), each pan, is removed individually to a spraying chamber and sprayed by means of an atomizer, operating at a spray pressure of 170.3 kPa […] at the application rates noted. In the spray solution was an amount of an emulsifying agent mixture to give a spray solution or suspension which contains about 0.4% by volume of the emulsifier. The spray solution or suspension contained a sufficient amount of the candidate chemical in order to give application rates of the active ingredient corresponding to those shown in Tables 4 and 5, while applying a total amount of solution or suspension equivalent to 1870 L/Ha (200 gallons/acre). […] The post-emergent herbicidal activity shown in these tables is the percent inhibition of each plant species. Testing with warm season and cool season plants is shown in tables 4a-4d and […], respectively.

Seedling Johnsongrass [19] = assay: post-emergence herbicide test; details: Sorghum halepense, post-emergence, 0.25 lb/A; read-out: % plant inhibition
Excerpt: as §4

Birdseye Speedwell [20] = assay: post-emergence herbicide test; details: post-emergence, 0.25 lb/A; read-out: % plant inhibition
Excerpt: as §4

Cocklebur [21] = assay: post-emergence herbicide test; details: Xanthium strumarium, post-emergence, 0.25 lb/A; read-out: % plant inhibition
Excerpt: as §4

Corn [22] = assay: post-emergence herbicide test; details: Zea mays, post-emergence, 0.25 lb/A; read-out: % plant inhibition
Excerpt: as §4

Blackgrass [23] = assay: post-emergence herbicide test; details: Alopecurus myosuroides, post-emergence, 0.25 lb/A; read-out: % plant inhibition
Excerpt: as §4

Barnyardgrass [24] = assay: post-emergence herbicide test; details: Echinochloa crus-galli, post-emergence, 0.25 lb/A; read-out: % plant inhibition
Excerpt: as §4

Giant Foxtail [25] = assay: post-emergence herbicide test; details: Setaria faberi, post-emergence, 0.25 lb/A; read-out: % plant inhibition
Excerpt: as §4

Rape [26] = assay: post-emergence herbicide test; details: post-emergence, 0.25 lb/A; read-out: % plant inhibition
Excerpt: as §4

Bedstraw Catchweed [27] = assay: post-emergence herbicide test; details: Galium aparine, post-emergence, 0.25 lb/A; read-out: % plant inhibition
Excerpt: as §4

Morning Glory [28] = assay: post-emergence herbicide test; details: Ipomoea, post-emergence, 0.25 lb/A; read-out: % plant inhibition
Excerpt: as §4

Soybean [29] = assay: post-emergence herbicide test; details: Glycine max, post-emergence, 0.25 lb/A; read-out: % plant inhibition
Excerpt: as §4

Velvetleaf [30] = assay: post-emergence herbicide test; details: Abutilon theophrasti, post-emergence, 0.25 lb/A; read-out: % plant inhibition
Excerpt: as §4

Wild Oats [31] = assay: post-emergence herbicide test; details: Avena fatua, post-emergence, 0.25 lb/A; read-out: % plant inhibition
Excerpt: as §4

Downy Brome [32] = assay: post-emergence herbicide test; details: Bromus tectorum, post-emergence, 0.25 lb/A; read-out: % plant inhibition
Excerpt: as §4

Common Chickweed [33] = assay: post-emergence herbicide test; details: post-emergence, 0.25 lb/A; read-out: % plant inhibition
Excerpt: as §4

Wheat [34] = assay: post-emergence herbicide test; details: Triticum aestivum, post-emergence, 0.25 lb/A; read-out: % plant inhibition
Excerpt: as §4

SMILES	inhibition at 280.212 g/ha (Green Foxtail [1]) [%]	inhibition at 280.212 g/ha (Seedling Johnsongrass [2]) [%]	inhibition at 280.212 g/ha (Birdseye Speedwell [3]) [%]	inhibition at 280.212 g/ha (Cocklebur [4]) [%]	inhibition at 280.212 g/ha (Blackgrass [6]) [%]	inhibition at 280.212 g/ha (Barnyardgrass [7]) [%]	inhibition at 280.212 g/ha (Giant Foxtail [8]) [%]	inhibition at 280.212 g/ha (Rape [9]) [%]	inhibition at 280.212 g/ha (Bedstraw Catchweed [10]) [%]	inhibition at 280.212 g/ha (Velvetleaf [13]) [%]	inhibition at 280.212 g/ha (Wild Oats [14]) [%]	inhibition at 280.212 g/ha (Downy Brome [15]) [%]	inhibition at 280.212 g/ha (Common Chickweed [16]) [%]	inhibition at 280.212 g/ha (Wheat [17]) [%]	inhibition at 280.212 g/ha (Green Foxtail [18]) [%]	inhibition at 280.212 g/ha (Seedling Johnsongrass [19]) [%]	inhibition at 280.212 g/ha (Birdseye Speedwell [20]) [%]	inhibition at 280.212 g/ha (Cocklebur [21]) [%]	inhibition at 280.212 g/ha (Corn [22]) [%]	inhibition at 280.212 g/ha (Blackgrass [23]) [%]	also measured
Cn1nc(-c2cc(C(=O)O)c(Cl)cc2F)c(C=O)c1C(F)(F)F [Compound 3, 2-Chloro-4-fluoro-5-[4-formyl-1-methyl-5-(trifluoromethyl)-1H-pyrazol-3-yl]benzoic acid]	30	25	0	5	5	15	5	5	5	25	5	0	0	0	10	0	75	65	2	0	inhibition at 280.212 g/ha (Corn [5]): 0%; inhibition at 280.212 g/ha (Morning Glory [11]): 60%; inhibition at 280.212 g/ha (Soybean [12]): 20%; inhibition at 280.212 g/ha (Barnyardgrass [24]): 0%; inhibition at 280.212 g/ha (Giant Foxtail [25]): 0%; inhibition at 280.212 g/ha (Rape [26]): 10%; inhibition at 280.212 g/ha (Bedstraw Catchweed [27]): 15%; inhibition at 280.212 g/ha (Morning Glory [28]): 25%; inhibition at 280.212 g/ha (Soybean [29]): 15%; inhibition at 280.212 g/ha (Velvetleaf [30]): 85%; inhibition at 280.212 g/ha (Wild Oats [31]): 5%; inhibition at 280.212 g/ha (Downy Brome [32]): 0%; inhibition at 280.212 g/ha (Common Chickweed [33]): 25%; inhibition at 280.212 g/ha (Wheat [34]): 8%
CCCOC(=O)c1cc(-c2nn(C)c(C(F)(F)F)c2C)c(F)cc1Cl [Compound 19]	100	95	100	60	95	98	99	50	80	90	75	40	100	0	20	50	55	75	20	20	% plant inhibition (Seedling Johnsongrass [2]): 85%; % plant inhibition (Cocklebur [4]): 70%; % plant inhibition (Corn [5]): 28%; inhibition at 280.212 g/ha (Corn [5]): 25%; % plant inhibition (Barnyardgrass [7]): 95%; % plant inhibition (Giant Foxtail [8]): 100%; % plant inhibition (Velvetleaf [13]): 98%; inhibition at 280.212 g/ha (Barnyardgrass [24]): 65%; inhibition at 280.212 g/ha (Giant Foxtail [25]): 65%; inhibition at 280.212 g/ha (Rape [26]): 15%; inhibition at 280.212 g/ha (Bedstraw Catchweed [27]): 60%; inhibition at 280.212 g/ha (Morning Glory [28]): 35%; inhibition at 280.212 g/ha (Soybean [29]): 50%; inhibition at 280.212 g/ha (Velvetleaf [30]): 90%; inhibition at 280.212 g/ha (Wild Oats [31]): 20%; inhibition at 280.212 g/ha (Downy Brome [32]): 25%; inhibition at 280.212 g/ha (Common Chickweed [33]): 50%; inhibition at 280.212 g/ha (Wheat [34]): 10%
CCOC(=O)c1cc(-c2nn(C)c(C(F)(F)F)c2C)c(F)cc1Cl [Compound 26, 2-chloro-5-[1,4-dimethyl-5-(trifluoromethyl)-1H-pyrazol-3-yl]-4-fluorobenzoic acid ethyl ester]	100	100	100	85	95	100	99	40	50	100	65	55	100	0	60	50	85	85	25	35	% plant inhibition (Cocklebur [4]): 93% and 92%; % plant inhibition (Giant Foxtail [8]): 100%; % plant inhibition (Morning Glory [11]): 97% and 98%; inhibition at 280.212 g/ha (Morning Glory [11]): 90%; inhibition at 280.212 g/ha (Barnyardgrass [24]): 95%; inhibition at 280.212 g/ha (Giant Foxtail [25]): 45%; inhibition at 280.212 g/ha (Rape [26]): 60%; inhibition at 280.212 g/ha (Bedstraw Catchweed [27]): 60%; inhibition at 280.212 g/ha (Morning Glory [28]): 50%; inhibition at 280.212 g/ha (Soybean [29]): 75%; inhibition at 280.212 g/ha (Velvetleaf [30]): 99%; inhibition at 280.212 g/ha (Wild Oats [31]): 35%; inhibition at 280.212 g/ha (Downy Brome [32]): 45%; inhibition at 280.212 g/ha (Common Chickweed [33]): 85%; inhibition at 280.212 g/ha (Wheat [34]): 17%
